This note sets out measurements from US11878966B2, “Substituted 4-benzyl and 4-benzoyl piperidine derivates” (89BIO LTD, priority 2015, dated 2024).

The target in the assay is T1, recombinant human baculovirus-expressed GST-tagged FASN (Homo sapiens, UniProt P49327).
T1 construct: GST; host or cells: baculovirus expression system (insect cells implied)
In words: FASN enzyme activity assay: fluorescence-based detection of CoA with CPM. Particulars: 5 nM FASN, 150 μM NADPH, 10 μM acetyl-CoA, 25 μM malonyl-CoA, 90 minutes incubation. The format is biochemical. The text has this:
FASN Enzyme activity may be determined by detecting coenzyme A (CoA), a product of FASN-catalyzed synthesis of palmitate from acetyl-CoA and malonyl-CoA with NADPH as a cofactor. The assay is fluorescence-based and measures the interaction of free CoA with 7-diethylamino-3-(4′-malemimidylphenyl)-4-methylcoumarin (CPM; Life Technologies, CA) as described in Chung et al (2008). The coumarin derivative CPM contains a thiol-reactive maleimide that becomes fluorescent upon interaction with the sulfhydryl group of CoA.
For the example compounds described herein, the reaction was performed in 384-well low volume non-binding platews (Corning, NY) using recombinant human baculovirus-expressed GST-tagged FASN. The 20-μL assay mixture contained 50 mM HEPES (pH 7.5), 5 nM FASN, 150 μM NADPH (Sigma, St. Louis, MO), 10 μM acetyl-CoA (Sigma), 25 μM malonyl-CoA (Sigma) and test compound [diluted in dimethyl sulfoxide (DMSO); 0.5% DMSO final in assay after 100 nL addition]. See, Chung et al.; “A fluorescence-based thiol quantification assay for ultra-high-throughput screening for inhibitors of coenzyme A production,” Assay Drug Dev Tech 2008; 6:361-374.
The reaction was initiated by adding malonyl-CoA, followed by incubation for 90 minutes at […]. A stock solution of the CPM reagent was prepared in DMSO al 66 μM and stored at […]. To detect CoA produced in the FASN reaction, the CPM stock was diluted to 50 μM in 70% ethanol and added at 4 μL/well to the assay place. The reaction mixture was then incubated for 30 minutes. Fluorescence was measured using the EnVision™ 2102 multi-label plate reader (PerkinElmer, Waltham, MA) utilizing a general dual mirror, a 390 nm excitation filter and a 530 nm emission filter. Data analysis was performed using ActivityBase (IDBS, Guilford, UK). IC50 values were calculated by plotting the percent inhibition versus log 10 of the concentration of the compound, and fitting to the nonlinear regression sigmoidal dose-response (variable slope) equation in XLFit (IDBS).

T1 sequence (P49327 whole entry): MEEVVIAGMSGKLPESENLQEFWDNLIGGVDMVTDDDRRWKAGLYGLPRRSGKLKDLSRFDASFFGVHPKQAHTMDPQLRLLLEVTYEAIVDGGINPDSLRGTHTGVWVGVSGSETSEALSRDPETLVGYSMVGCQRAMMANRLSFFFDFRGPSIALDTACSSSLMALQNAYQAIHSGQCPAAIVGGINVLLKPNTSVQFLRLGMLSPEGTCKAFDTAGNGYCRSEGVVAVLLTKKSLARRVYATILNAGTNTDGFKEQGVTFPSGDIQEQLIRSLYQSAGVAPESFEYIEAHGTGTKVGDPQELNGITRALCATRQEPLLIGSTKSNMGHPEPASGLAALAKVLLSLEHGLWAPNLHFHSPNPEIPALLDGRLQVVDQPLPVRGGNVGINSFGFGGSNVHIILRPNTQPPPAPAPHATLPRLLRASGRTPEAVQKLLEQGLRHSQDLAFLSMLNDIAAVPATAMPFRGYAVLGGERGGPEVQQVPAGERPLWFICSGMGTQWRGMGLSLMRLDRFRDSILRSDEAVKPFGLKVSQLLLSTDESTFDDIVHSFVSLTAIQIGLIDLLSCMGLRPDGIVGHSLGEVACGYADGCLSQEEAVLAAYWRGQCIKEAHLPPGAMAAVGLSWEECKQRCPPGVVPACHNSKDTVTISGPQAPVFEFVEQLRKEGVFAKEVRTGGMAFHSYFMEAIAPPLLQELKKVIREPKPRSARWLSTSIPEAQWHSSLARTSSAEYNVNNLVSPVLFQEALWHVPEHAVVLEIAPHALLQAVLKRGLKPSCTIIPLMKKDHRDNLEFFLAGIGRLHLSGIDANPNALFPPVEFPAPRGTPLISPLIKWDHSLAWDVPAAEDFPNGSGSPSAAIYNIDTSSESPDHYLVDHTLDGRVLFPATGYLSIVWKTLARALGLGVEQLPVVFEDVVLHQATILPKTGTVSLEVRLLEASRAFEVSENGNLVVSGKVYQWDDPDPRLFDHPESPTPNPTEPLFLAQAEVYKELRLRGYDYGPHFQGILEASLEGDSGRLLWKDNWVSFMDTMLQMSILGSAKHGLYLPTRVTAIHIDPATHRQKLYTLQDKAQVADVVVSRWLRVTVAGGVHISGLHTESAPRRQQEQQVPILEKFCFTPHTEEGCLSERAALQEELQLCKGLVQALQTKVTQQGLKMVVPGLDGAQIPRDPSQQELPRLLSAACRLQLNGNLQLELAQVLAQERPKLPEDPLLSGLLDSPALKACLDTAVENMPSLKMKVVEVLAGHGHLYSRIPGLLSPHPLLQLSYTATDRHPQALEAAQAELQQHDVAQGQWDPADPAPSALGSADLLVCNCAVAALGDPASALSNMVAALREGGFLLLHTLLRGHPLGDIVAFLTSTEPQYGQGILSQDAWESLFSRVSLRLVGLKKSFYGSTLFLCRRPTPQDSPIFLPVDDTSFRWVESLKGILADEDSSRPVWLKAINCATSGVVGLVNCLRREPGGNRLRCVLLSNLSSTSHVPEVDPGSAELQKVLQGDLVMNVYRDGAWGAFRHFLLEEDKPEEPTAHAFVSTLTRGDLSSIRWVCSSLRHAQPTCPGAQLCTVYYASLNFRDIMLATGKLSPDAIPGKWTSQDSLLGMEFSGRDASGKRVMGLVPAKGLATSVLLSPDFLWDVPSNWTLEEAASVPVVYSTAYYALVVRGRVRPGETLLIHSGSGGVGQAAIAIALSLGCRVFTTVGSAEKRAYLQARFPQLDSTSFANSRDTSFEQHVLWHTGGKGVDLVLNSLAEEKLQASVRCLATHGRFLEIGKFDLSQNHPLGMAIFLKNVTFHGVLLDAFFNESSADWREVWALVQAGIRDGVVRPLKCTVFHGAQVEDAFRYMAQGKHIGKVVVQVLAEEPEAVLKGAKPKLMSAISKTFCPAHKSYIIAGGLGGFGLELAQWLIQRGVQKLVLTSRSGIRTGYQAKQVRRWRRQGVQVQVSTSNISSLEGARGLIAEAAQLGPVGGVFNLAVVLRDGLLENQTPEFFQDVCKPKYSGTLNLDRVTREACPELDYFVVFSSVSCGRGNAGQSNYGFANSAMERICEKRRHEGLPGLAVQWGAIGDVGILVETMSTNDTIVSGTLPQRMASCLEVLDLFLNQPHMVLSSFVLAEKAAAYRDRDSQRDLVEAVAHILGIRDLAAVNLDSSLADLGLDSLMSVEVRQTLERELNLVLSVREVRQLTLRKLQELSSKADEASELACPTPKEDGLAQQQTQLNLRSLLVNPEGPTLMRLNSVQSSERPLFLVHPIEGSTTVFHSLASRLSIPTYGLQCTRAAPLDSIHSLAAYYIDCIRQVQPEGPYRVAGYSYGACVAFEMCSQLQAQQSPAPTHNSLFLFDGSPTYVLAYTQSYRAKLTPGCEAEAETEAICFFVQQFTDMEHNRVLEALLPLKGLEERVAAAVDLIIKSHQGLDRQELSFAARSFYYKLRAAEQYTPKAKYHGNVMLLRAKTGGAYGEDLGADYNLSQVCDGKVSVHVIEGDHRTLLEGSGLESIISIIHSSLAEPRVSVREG

Take `COc1c(-c2ccc(C(C)C3CCN(C(=O)[C@H]4CCCO4)CC3)cc2)ccc2cccnc12` (mixture of isomers) [Example 69, (4-{1-[4-(8-Methoxyquinolin-7-yl)-phenyl]-ethyl}-piperidin-1-yl)-(R)-tetrahydrofuran-2-yl-methanone]: the IC50 lay in the range of 0.001 to 0.099 µM. As to `Cc1c(-c2ccc(C(C)C3CCN(C(=O)[C@H]4CCCO4)CC3)cc2)ccc2cccnc12` (mixture of isomers) [Example 70, (4-{1-[4-(8-Methylquinolin-7-yl)-phenyl]-ethyl}-piperidin-1-yl)-(R)-tetrahydrofuran-2-yl-methanone], the IC50 was in the range of 0.001 to 0.099 µM. With `Cc1c(-c2ccc(C(C)C3CCN(C(=O)[C@H]4CCCO4)CC3)cc2)cnc2ccccc12` (mixture of isomers) [Example 71, (4-{1-[4-(4-Methylquinolin-3-yl)-phenyl]-ethyl}-piperidin-1-yl)-(R)-tetrahydrofuran-2-yl-methanone] the figure was 0.001 to 0.099 µM; with `CC(c1ccc(-c2ccc3cccnc3c2Cl)cc1)C1CCN(C(=O)[C@H]2CCCO2)CC1` (mixture of isomers) [Example 74, (4-{1-[4-(8-Chloroquinolin-7-yl)-phenyl]-ethyl}-piperidin-1-yl)-(R)-tetrahydrofuran-2-yl-methanone], 0.001 to 0.099 µM. With `CC(c1ccc(-c2cnc3ccccc3c2Cl)cc1)C1CCN(C(=O)[C@H]2CCCO2)CC1` (mixture of isomers) [Example 77, (4-{1-[4-(4-Chloroquinolin-3-yl)-phenyl]-ethyl}-piperidin-1-yl)-(R)-tetrahydrofuran-2-yl-methanone], the half-maximal inhibitory concentration (IC50) fell in the range of 0.001 to 0.099 µM.

`COCCOC(c1ccc(-c2ccc3c(C)nccc3c2)cc1)C1CCN(C(=O)[C@H]2CCCO2)CC1` (mixture of isomers) [Example 82, (4-{(2-Methoxyethoxy)-[4-(1-methylisoquinolin-6-yl)-phenyl]-methyl}-piperidin-1-yl)-(R)-tetrahydrofuran-2-yl-methanone]: the IC50 was 0.001 to 0.099 µM. `CCC(=O)N1CCC(C(=NOC)c2ccc(-c3ccc4cccnc4c3)cc2)CC1` (racemic) [Example 50, 1-{4-[[Methoxyimino]-(4-quinolin-7-yl-phenyl)-methyl]-piperidin-1-yl}-propan-1-one]: the IC50 is 0.001 to 0.099 µM. On to `CCC(=O)N1CC[C@@H](Cc2ccc(-c3cnc4ccccc4c3)cc2)[C@H](O)C1` (relative stereo) [Example 218, 1-[trans-3-Hydroxy-4-(4-quinolin-3-yl-benzyl)-piperidin-1-yl]-propan-1-one], for which the IC50 lay within 0.1 to 0.999 µM. With `CCC(=O)N1CC[C@@H](Cc2ccc(-c3cnc4ccccc4c3)cc2)[C@H](OC)C1` (relative stereo) [Example 219, 1-[(trans)-3-Methoxy-4-(4-quinolin-3-yl-benzyl)-piperidin-1-yl]-propan-1-one] the figure was 0.1 to 0.999 µM; with `CCC(=O)N1CC[C@@H](Cc2ccc(-c3cnc4ccccc4c3)cc2)[C@@H](F)C1` (relative stereo) [Example 221, 1-[cis-3-Fluoro-4-(4-quinolin-3-yl-benzyl)-piperidin-1-yl]-propan-1-one], 0.001 to 0.099 µM; with `CCC(=O)N1CCC(C(C)c2ccc(-c3cnc4ccccc4c3)cc2)CC1` (single isomer, unassigned) [Example 67, 1-{4-[1-(4-Quinolin-3-yl-phenyl)-ethyl]-piperidin-1-yl}-propan-1-one], 0.001 to 0.099 µM. On to `CCC(=O)N1CCC(C(C)c2ccc(-c3cnc4ccccc4c3)cc2)CC1` (single isomer, unassigned) [Example 68, 1-{4-[1-(4-Quinolin-3-yl-phenyl)-ethyl]-piperidin-1-yl}-propan-1-one], for which the IC50 lay in the range of 0.001 to 0.099 µM. The figure for `O=C(C1CCCO1)N1CC=C(Cc2ccc(-c3ccc4cccnc4c3)cc2)CC1` (stereo in doubt) [Example 188, (R)-(4-(4-(quinolin-7-yl)benzyl)-5,6-dihydropyridin-1(2H)-yl)(tetrahydrofuran-2-yl)methanone] is 0.001 to 0.099 µM.

Take `O=C(C1CCCO1)N1CCC(F)(Cc2ccc(-c3cnc4ccccc4c3)cc2)CC1` (stereo in doubt) [Example 189, (R)-(4-fluoro-4-(4-(quinolin-3-yl)benzyl)piperidin-1-yl)(tetrahydrofuran-2-yl)methanone]: the IC50 lay within 0.001 to 0.099 µM. With `O=C(C1CCCO1)N1CC=C(Cc2ccc(-c3cnc4ccccc4c3)cc2)CC1` (stereo in doubt) [Example 190, (R)-(4-(4-(quinolin-3-yl)benzyl)-5,6-dihydropyridin-1(2H)-yl)(tetrahydrofuran-2-yl)methanone] the figure was 0.001 to 0.099 µM; with `CCC(=O)N1CCC(Cc2ccc(-c3cnc4ccccc4c3)cc2)CC1` [Example 1, 1-[4-(4-Quinolin-3-yl-benzyl)-piperidin-1-yl]-propan-1-one], 0.001 to 0.099 µM. With `CC(C)C(=O)N1CCC(Cc2ccc(-c3cnc4ccccc4c3)cc2)CC1` [Example 2, 2-Methyl-1-[4-(4-quinolin-3-yl-benzyl)-piperidin-1-yl]-propan-1-one] the figure was 0.001 to 0.099 µM; with `O=C(C1CC1)N1CCC(Cc2ccc(-c3cnc4ccccc4c3)cc2)CC1` [Example 3, Cyclopropyl-[4-(4-quinolin-3-yl-benzyl)-piperidin-1-yl]-methanone], 0.001 to 0.099 µM; with `O=C([C@H]1CCCO1)N1CCC(Cc2ccc(-c3cnc4ccccc4c3)cc2)CC1` [Example 4], 0.001 to 0.099 µM. Consider `O=C([C@@H]1CCCO1)N1CCC(Cc2ccc(-c3cnc4ccccc4c3)cc2)CC1` [Example 5], for which the IC50 fell in the range of 0.001 to 0.099 µM. `CCC(=O)N1CCC(C(F)c2ccc(-c3cnc4ccccc4c3)cc2)CC1` (centres unmarked) [Example 6, 1-{4-[Fluoro-(4-quinolin-3-yl-phenyl)-methyl]-piperidin-1-yl}-propan-1-one]: the IC50 fell in the range of 0.001 to 0.099 µM. With `O=C(C1CC1)N1CCC(C(F)c2ccc(-c3cnc4ccccc4c3)cc2)CC1` (centres unmarked) [Example 7, Cyclopropyl-{4-[fluoro-(4-quinolin-3-yl-phenyl)-methyl]-piperidin-1-yl}-methanone] the figure was 0.001 to 0.099 µM; with `O=C([C@H]1CCCO1)N1CCC(C(F)c2ccc(-c3cnc4ccccc4c3)cc2)CC1` (stereo partly drawn) [Example 8, {4-[Fluoro-(4-quinolin-3-yl-phenyl)-methyl]-piperidin-1-yl}-(R)-tetrahydro-furan-2-yl-methanone], 0.001 to 0.099 µM; with `CCC(=O)N1CCC(C(F)(F)c2ccc(-c3cnc4ccccc4c3C)cc2)CC1` [Example 9, 1-(4-{difluoro-[4-(4-methyl-quinolin-3-yl)-phenyl]-methyl}-piperidin-1-yl)-propan-1-one], 0.1 to 0.999 µM.

Turning to `Cc1c(-c2ccc(C(F)(F)C3CCN(C(=O)C4CC4)CC3)cc2)cnc2ccccc12` [Example 10, Cyclopropyl-(4-{difluoro-[4-(4-methyl-quinolin-3-yl)-phenyl]-methyl}-piperidin-1-yl)-methanone], the IC50 fell in the range of 0.1 to 0.999 µM. `Cc1c(-c2ccc(C(F)(F)C3CCN(C(=O)[C@H]4CCCO4)CC3)cc2)cnc2ccccc12` [Example 11, (4-{Difluoro-[4-(4-methylquinolin-3-yl)-phenyl]-methyl}-piperidin-1-yl)-(R)-tetrahydrofuran-2-yl-methanone]: the IC50 fell in the range of 0.001 to 0.099 µM. Consider `CCC(=O)N1CCC(Cc2ccc(-c3cnc4ccccc4c3C)cc2)CC1` [Example 12, 1-{4-[4-(4-Methylquinolin-3-yl)-benzyl]-piperidin-1-yl}-propan-1-one], for which the IC50 was 0.001 to 0.099 µM. The figure for `Cc1c(-c2ccc(CC3CCN(C(=O)C4CC4)CC3)cc2)cnc2ccccc12` [Example 13, Cyclopropyl-{4-[4-(4-methylquinolin-3-yl)-benzyl]-piperidin-1-yl}-methanone] is 0.001 to 0.099 µM; for `Cc1c(-c2ccc(CC3CCN(C(=O)C4CC(F)(F)C4)CC3)cc2)cnc2ccccc12` [Example 14, (3,3-Difluorocyclobutyl)-{4-[4-(4-methylquinolin-3-yl)-benzyl]-piperidin-1-yl}-methanone] it is 1 to 10 µM. With `Cc1c(-c2ccc(CC3CCN(C(=O)[C@H]4CCCO4)CC3)cc2)cnc2ccccc12` [Example 15, {4-[4-(4-Methylquinolin-3-yl)-benzyl]-piperidin-1-yl}-(R)-tetrahydrofuran-2-yl-methanone] the figure was 0.001 to 0.099 µM; with `CCC(=O)N1CCC(C(F)(F)c2ccc(-c3cnc4ccccc4c3)cc2)CC1` [Example 16, 1-{4-[Difluoro-(4-quinolin-3-yl-phenyl)-methyl]-piperidin-1-yl}-propan-1-one], 0.1 to 0.999 µM; with `O=C(C1CC1)N1CCC(C(F)(F)c2ccc(-c3cnc4ccccc4c3)cc2)CC1` [Example 17, Cyclopropyl-{4-[difluoro-(4-quinolin-3-yl-phenyl)-methyl]-piperidin-1-yl}-methanone], 0.1 to 0.999 µM.

As a reminder, the IC50 is the concentration that inhibits the measured activity by half.
